≈ marks a conversion by molar mass, not a printed value.
Columns and labels:
[1] = Thermodynamic solubility of the compound in buffer containing 20 mmol/L of sodium taurocholate at pH 6.8; format: physicochemical; details: buffer containing 20 mmol/L sodium taurocholate, read-out: Therm_solubility
[2] = Stability in rat liver microsomes assessed as compound remaining after 30 mins; format: ADME; details: read-out: Stability
[3] = Plasma clearance in Sprague-Dawley rat at 0.5 mg/kg, iv; format: ADME, organism-based; parameters: dose 0.5 mg/kg, route intravenous
[4] = Volume of distribution at steady state in Sprague-Dawley rat at 0.5 mg/kg, iv; format: ADME, organism-based; parameters: dose 0.5 mg/kg, route intravenous; details: in vivo, read-out: Vdss
[5] = AUC in Sprague-Dawley rat at 1 mg/kg, po; format: ADME, organism-based; parameters: dose 1 mg/kg, route oral; details: plasma
[6] = Cmax in Sprague-Dawley rat at 1 mg/kg, po; format: ADME, organism-based; parameters: dose 1 mg/kg, route oral; details: in vivo
[7] = Oral bioavailability in Sprague-Dawley rat at 1 mg/kg; format: ADME, organism-based; details: in vivo
NCI-H358 = experiment: Antiproliferative activity against human NCI-H358 cells after 72 hrs by WST8 assay; format: functional, cell-based; details: NCI-H358, 72 h
MRC5 = experiment: Antiproliferative activity against human MRC5 cells after 72 hrs by WST8 assay; format: cell-based; details: MRC5, 72 h
NCI-H460 [8] = experiment: cells; details: Homo sapiens, NCI-H460, 72 h
Description: Antiproliferative activity against human NCI-H460 cells after 72 hrs by WST8 assay

cells [9] = details: Homo sapiens, LU-99A, 72 h
Description: Antiproliferative activity against human LU99A cells after 72 hrs by WST8 assay

cells [10] = details: Homo sapiens, Lu116, 72 h
Description: Antiproliferative activity against human Lu116 cells after 72 hrs by WST8 assay

cells [11] = details: Homo sapiens, LC-2-ad, 72 h
Description: Antiproliferative activity against human LC2/ad cells after 72 hrs by WST8 assay

cells [12] = details: Homo sapiens, PC-14, 72 h
Description: Antiproliferative activity against human PC14 cells after 72 hrs by WST8 assay

cells [13] = details: Homo sapiens, HCT-15, 72 h
Description: Antiproliferative activity against human HCT15 cells after 72 hrs by WST8 assay

cells [14] = details: Homo sapiens, HCT-116, 72 h
Description: Antiproliferative activity against human HCT116 cells after 72 hrs by WST8 assay

HT-29 = experiment: cells; details: Homo sapiens, HT-29, 72 h
Description: Antiproliferative activity against human HT-29 cells after 72 hrs by WST8 assay

cells [15] = details: Homo sapiens, MIA PaCa-2, 72 h
Description: Antiproliferative activity against human MIAPaCa2 cells after 72 hrs by WST8 assay

cells [16] = details: Homo sapiens, GSS, 72 h
Description: Antiproliferative activity against human GSS cells after 72 hrs by WST8 assay

cells [17] = details: Homo sapiens, MKN-45, 72 h
Description: Antiproliferative activity against human MKN45 cells after 72 hrs by WST8 assay

cells [18] = details: Homo sapiens, HL-60, 72 h
Description: Antiproliferative activity against human HL60 cells after 72 hrs by WST8 assay

A549 = experiment: cells; details: Homo sapiens, A549, 72 h
[19] = Cmax in BALB/c AJcl-nu/nu mouse at 10 mg/kg, po; format: ADME, organism-based; parameters: dose 10 mg/kg, route oral; details: in vivo
[20] = Cmax in BALB/c AJcl-nu/nu mouse at 100 mg/kg, po; format: ADME, organism-based; parameters: dose 100 mg/kg, route oral; details: in vivo
[21] = AUC in BALB/c AJcl-nu/nu mouse at 10 mg/kg, po; format: ADME, organism-based; parameters: dose 10 mg/kg, route oral; details: plasma
[22] = AUC in BALB/c AJcl-nu/nu mouse at 100 mg/kg, po; format: ADME, organism-based; parameters: dose 100 mg/kg, route oral; details: plasma
[23] = Tmax in BALB/c AJcl-nu/nu mouse at 10 mg/kg, po; format: ADME, organism-based; parameters: dose 10 mg/kg, route oral; details: in vivo
[24] = Tmax in BALB/c AJcl-nu/nu mouse at 100 mg/kg, po; format: ADME, organism-based; parameters: dose 100 mg/kg, route oral; details: in vivo
Plasma = experiment: Fraction unbound in rat plasma; format: ADME, cell-free
NCI-H460 [25] = experiment: Antitumor activity against human NCI-H460 cells xenografted in nude mouse assessed as tumor growth inhibition at 2.5 mg/kg, po qd for 2 weeks relative to control; format: functional
NCI-H460 [26] = experiment: Antitumor activity against human NCI-H460 cells xenografted in nude mouse assessed as tumor growth inhibition at 5 mg/kg, po qd for 2 weeks relative to control; format: functional
NCI-H460 [27] = experiment: Antitumor activity against human NCI-H460 cells xenografted in nude mouse assessed as tumor growth inhibition at 10 mg/kg, po qd for 2 weeks relative to control; format: functional
Mus musculus [28] = experiment: Toxicity in human NCI-H460 cells xenografted nude mouse assessed as body weight loss at 5 mg/kg, po qd for 2 weeks relative to control; format: organism-based; parameters: dose 5 mg/kg, route oral; details: in vivo, 336 h
Mus musculus [29] = experiment: Toxicity in human NCI-H460 cells xenografted nude mouse assessed as body weight loss at 10 mg/kg, po qd for 2 weeks relative to control; format: organism-based; parameters: dose 10 mg/kg, route oral; details: in vivo, 336 h
Mus musculus [30] = experiment: Toxicity in human NCI-H460 cells xenografted nude mouse assessed as mortality at 5 to 10 mg/kg, po qd for 2 weeks relative to control; format: organism-based; parameters: dose 5-10 mg/kg, route oral; details: in vivo, 336 h
Mus musculus [31] = experiment: Toxicity in human NCI-H460 cells xenografted nude mouse assessed as body weight loss at 2.5 mg/kg, po qd for 2 weeks relative to control; format: organism-based; parameters: dose 2.5 mg/kg, route oral; details: in vivo, 336 h

Compound	solubility thermodynamic [1]	remaining at 0.5 h [2]	clearance [3]	Vd [4]	AUC [5]	Cmax [6]	bioavailability [7]	further results
O=C(NC1CC1)c1ccc(-c2cnc3c(NCC4CCOCC4)cc(OC4CCCCC4)nn23)cc1	10 µg/mL (≈ 20.4 µM)	55%	8.7 mL/min/kg	1.6 L/kg	439 ng·h/mL	33 ng/mL	23%	
CC(=O)O[C@H]1C(=O)[C@@]2(C)[C@H]([C@H](OC(=O)c3ccccc3)[C@]3(O)C[C@H](OC(=O)[C@H](O)[C@@H](NC(=O)c4ccccc4)c4ccccc4)C(C)=C1C3(C)C)[C@]1(OC(C)=O)CO[C@@H]1C[C@@H]2O [PACLITAXEL]								IC50 (NCI-H358): 7.9 nM; IC50 (MRC5): 80 nM; IC50 (NCI-H460 [8]): 10 nM; IC50 (cells [9]): 5.2 nM; IC50 (cells [10]): 5.1 nM; IC50 (cells [11]): 2.5 nM; IC50 (cells [12]): 4.4 nM; IC50 (cells [13]): 240 nM; IC50 (cells [14]): 6.1 nM; IC50 (HT-29): 7 nM; IC50 (cells [15]): 6.1 nM; IC50 (cells [16]): 3.4 nM; IC50 (cells [17]): 4 nM; IC50 (cells [18]): 7.9 nM
CC(C)(C)Nc1cc(NCC2CCOCC2)c2ncc(-c3ccc(C(=O)NC4CC4)cc3)n2n1	63 µg/mL (≈ 136 µM)	59%	16 mL/min/kg	1.7 L/kg	377 ng·h/mL	50 ng/mL	36%	
O=C(NC1CC1)c1ccc(-c2cnc3c(NCC4CCOCC4)nccn23)cc1								IC50 (A549): 1500 nM
CC(C)(Nc1cc(NCC2CCOCC2)c2ncc(-c3ccc(C(=O)NC4CC4)cc3)n2n1)C(F)(F)F	29 µg/mL (≈ 56.1 µM)	41%	11 mL/min/kg	1.3 L/kg	360 ng·h/mL	38 ng/mL	24%	Cmax [19]: 2430 ng/mL; Cmax [20]: 14000 ng/mL; AUC [21]: 8000 ng·h/mL; AUC [22]: 48500 ng·h/mL; Tmax [23]: 30 min; Tmax [24]: 60 min; Fu (Plasma): 0.51%; T/C (NCI-H460 [25]): 57%; T/C (NCI-H460 [26]): 40%; T/C (NCI-H460 [27]): 19%; Activity (Mus musculus [28]): 25%; Activity (Mus musculus [29]): 32%; Activity (Mus musculus [30]): Toxic; Activity (Mus musculus [31]): Non-toxic
COc1cc(Nc2ncc3c(n2)-c2ccc(Cl)cc2C(c2c(F)cccc2OC)=NC3)ccc1C(=O)O [ALISERTIB]								IC50 (NCI-H358): 100 nM; IC50 (MRC5): > 10000 nM; IC50 (cells [9]): 62 nM; IC50 (cells [10]): 97 nM; IC50 (cells [11]): 77 nM; IC50 (cells [12]): 170 nM; IC50 (cells [13]): 740 nM; IC50 (cells [14]): 95 nM; IC50 (HT-29): 330 nM; IC50 (cells [15]): 130 nM; IC50 (cells [16]): 39 nM; IC50 (cells [17]): 93 nM; IC50 (cells [18]): 74 nM

Further lines, with some results ahead:

solubility thermodynamic [1]	remaining at 0.5 h [2]	clearance [3]	Vd [4]	AUC [5]	Cmax [6]	bioavailability [7]	Compound	further results
0.49 µg/mL (≈ 0.995 µM)	42%	38 mL/min/kg	4.2 L/kg			0%	N#Cc1ccc(-c2cc(NCC3CCOCC3)c3ncc(-c4ccc(C(=O)NC5CC5)cc4)n3n2)cc1	
1 µg/mL (≈ 2.03 µM)	0%	145 mL/min/kg	5 L/kg			0%	N#Cc1ccc(-c2cn3c(-c4ccc(C(=O)NC5CC5)cc4)cnc3c(NCC3CCOCC3)n2)cc1	
8 µg/mL (≈ 16 µM)	39%	22 mL/min/kg	2 L/kg	126 ng·h/mL	16 ng/mL	16%	O=C(NC1CC1)c1ccc(-c2cnc3c(NCC4CCOCC4)cc(Oc4ccccc4F)nn23)cc1	
1.3 µg/mL (≈ 2.6 µM)	21%	78 mL/min/kg	2.2 L/kg			0%	O=C(NC1CC1)c1ccc(-c2cnc3c(NCC4CCOCC4)cc(Oc4ccccc4O)nn23)cc1	
2.6 µg/mL (≈ 5.12 µM)	59%	23 mL/min/kg	2 L/kg			0%	N#Cc1ccc(-c2cc(NCC3CCOCC3)c3ncc(-c4ccc(C(=O)NC5CC5)cc4)n3n2)c(N)c1	
